Test results published in the supplement of paper PMC10307832.

Columns and labels:
Assay in all cases: relative viability (nuclei count vs DMSO), 5 days (fraction); higher = more cells survive
Ponatinib + Bortezomib = compound: Cc1ccc(C(=O)Nc2ccc(CN3CCN(C)CC3)c(C(F)(F)F)c2)cc1C#Cc1cnc2cccnn12 [Ponatinib] + CC(C)C[C@H](NC(=O)[C@H](Cc1ccccc1)NC(=O)c1cnccn1)B(O)O [Bortezomib] (partner 0.002 µM)
Summary of the method: (§1)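 Lung cancer cell lines were pin-tool dosed in 1536-well plates on the day after seeding, with either a lone drug or a fixed anchor-drug dose plus five library-drug doses (not always all listed) in √10 steps. Nuclei were counted on 4× images after 5 days. Relative viability is the ratio of treated-well to vehicle-well nuclei counts, with each value a median of duplicate plates.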

Ponatinib + Lapatinib = compound: Cc1ccc(C(=O)Nc2ccc(CN3CCN(C)CC3)c(C(F)(F)F)c2)cc1C#Cc1cnc2cccnn12 [Ponatinib] + CS(=O)(=O)CCNCc1ccc(-c2ccc3ncnc(Nc4ccc(OCc5cccc(F)c5)c(Cl)c4)c3c2)o1 [Lapatinib] (partner 2 µM)
Summary of the method: as §1

Ponatinib + Linsitinib = compound: Cc1ccc(C(=O)Nc2ccc(CN3CCN(C)CC3)c(C(F)(F)F)c2)cc1C#Cc1cnc2cccnn12 [Ponatinib] + C[C@]1(O)C[C@@H](c2nc(-c3ccc4ccc(-c5ccccc5)nc4c3)c3c(N)nccn32)C1 [Linsitinib] (partner 1 µM)
Summary of the method: as §1

Ponatinib + Tozasertib = compound: Cc1ccc(C(=O)Nc2ccc(CN3CCN(C)CC3)c(C(F)(F)F)c2)cc1C#Cc1cnc2cccnn12 [Ponatinib] + Cc1cc(Nc2cc(N3CCN(C)CC3)nc(Sc3ccc(NC(=O)C4CC4)cc3)n2)n[nH]1 [Tozasertib] (partner 0.1 µM)
Summary of the method: as §1

Ponatinib + Olaparib = compound: Cc1ccc(C(=O)Nc2ccc(CN3CCN(C)CC3)c(C(F)(F)F)c2)cc1C#Cc1cnc2cccnn12 [Ponatinib] + O=C(c1cc(Cc2n[nH]c(=O)c3ccccc23)ccc1F)N1CCN(C(=O)C2CC2)CC1 [Olaparib] (partner 8 µM)
Summary of the method: as §1

| Cell Line | relative viability (Ponatinib + Bortezomib; first compound 0.002 µM) | relative viability (Ponatinib + Bortezomib; first compound 0.006325 µM) | relative viability (Ponatinib + Bortezomib; first compound 0.06325 µM) | relative viability (Ponatinib + Bortezomib; first compound 0.2 µM) | relative viability (Ponatinib + Lapatinib; first compound 0.002 µM) | relative viability (Ponatinib + Lapatinib; first compound 0.006325 µM) | relative viability (Ponatinib + Lapatinib; first compound 0.06325 µM) | relative viability (Ponatinib + Lapatinib; first compound 0.2 µM) | relative viability (Ponatinib + Linsitinib; first compound 0.002 µM) | relative viability (Ponatinib + Linsitinib; first compound 0.006325 µM) | relative viability (Ponatinib + Linsitinib; first compound 0.06325 µM) | relative viability (Ponatinib + Linsitinib; first compound 0.2 µM) | relative viability (Ponatinib + Tozasertib; first compound 0.002 µM) | relative viability (Ponatinib + Tozasertib; first compound 0.006325 µM) | relative viability (Ponatinib + Tozasertib; first compound 0.06325 µM) | relative viability (Ponatinib + Tozasertib; first compound 0.2 µM) | relative viability (Ponatinib + Olaparib; first compound 0.002 µM) | relative viability (Ponatinib + Olaparib; first compound 0.006325 µM) | relative viability (Ponatinib + Olaparib; first compound 0.06325 µM) | relative viability (Ponatinib + Olaparib; first compound 0.2 µM) |
| --- | --- | --- | --- | --- | --- | --- | --- | --- | --- | --- | --- | --- | --- | --- | --- | --- | --- | --- | --- | --- |
| NCI-H1666 | 0.736 | 0.832 | 0.985 | 1.11 | 0.619 | 0.666 | 0.796 | 0.773 | 0.765 | 0.916 | 1.09 | 0.859 | 0.707 | 0.627 | 0.669 | 0.548 | 0.749 | 0.76 | 0.733 | 0.664 |
| HCC-366 | 1.04 | 1.13 | 1.14 | 0.982 | 1.01 | 1.01 | 1.08 | 1.01 | 0.699 | 0.701 | 1.02 | 0.606 | 0.112 | 0.108 | 0.0686 | 0.0671 | 0.323 | 0.382 | 0.482 | 0.328 |
| NCI-H1395 | – | – | – | – | – | 0.888 | 0.782 | 0.753 | – | 1.05 | 0.915 | 0.832 | 0.636 | 0.747 | 0.768 | 0.701 | 0.446 | 0.425 | 0.47 | 0.433 |
| NCI-H727 | 0.625 | 0.856 | 0.851 | 0.824 | 0.794 | 0.825 | 1.11 | 0.77 | 0.268 | 0.328 | 0.378 | 0.173 | 0.607 | 0.593 | 0.531 | 0.669 | 0.609 | 0.742 | 0.587 | 0.627 |
| RERF-LC-KJ | 1.06 | 0.988 | 1.2 | 1.15 | 0.8 | 0.882 | 0.881 | 0.8 | 0.842 | 0.907 | 0.914 | 0.827 | 0.476 | 0.474 | 0.405 | 0.281 | 0.874 | 0.879 | 0.988 | 0.793 |
| NCI-H1623 | – | – | – | – | – | – | – | – | – | – | – | – | 0.429 | 0.426 | 0.453 | 0.419 | – | – | – | – |
| Calu-6 | 1.01 | 1.11 | 0.953 | 0.856 | 1 | 0.954 | 1.22 | 1.03 | 0.956 | 0.964 | 0.932 | 0.747 | – | – | – | – | 0.541 | 0.556 | 0.497 | 0.493 |
| LC-2-ad | 0.964 | 1.01 | 0.911 | 0.875 | 0.969 | 0.697 | 0.49 | 0.495 | 0.802 | 0.728 | 0.644 | 0.555 | 0.458 | 0.455 | 0.431 | 0.397 | 0.764 | 0.762 | 0.781 | 0.713 |
| CAL-12T | 0.634 | 0.9 | 1.39 | 1.09 | 0.702 | 0.714 | 1 | 0.698 | 0.791 | 0.773 | 1.12 | 0.899 | 0.317 | 0.259 | 0.268 | 0.265 | 0.735 | 0.663 | 0.822 | 0.683 |
